Entries after “also recorded” stand apart in the source; their conditions may differ.
Experiments:
Chlamydomonas = assay: Colony growth of Chlamydomonas with and without salinity and osmotic stress; format: in vivo
Protocol: FIG. 17A-FIG. 17D. The effect of ABA and its agonists in Physcomitrella patens and Chlamydomonas. Protonemal growth images (A) and quantitative analysis (B) of the effects of ABA and agonists on Phsycomitrella patens. Protonema were grown on 200 μM of specific test chemical for 10 days. […] Pyrabactin bleached protonema. (C) The expression of ABA-responsive genes of Physcomitrella patens. Protonema were treated with 200 μM chemical solutions for 3 h. (D) Colony growth of Chlamydomonas on the chemical with salinity stress and osmotic stress. There was no effect of ABA and LC66C6 on the Chlamydomonas growth with and without stresses.

Arabidopsis seeds = assay: Arabidopsis germination inhibition, wild type and mutants, Example 2; format: in vivo
Protocol: FIG. 5A-FIG. 5D. Novel ABA agonists inhibit germination of Arabidopsis seeds more strongly than pyrabactin. (A) and (B) Comparison of seed germination inhibition by ABA agonists. (C) and (D) the effects of ABA and LC66C6 (also called quinabactin) on Arabidopsis ABA signaling- and biosynthesis-deficient mutants on germination (C) and seedling establishment (D). Seeds were sown on ½×MS agar plate containing chemicals, and were stored at 4° C. for 4 days, then transferred at 22±2° C. Photographs (A and C) and germination (B) or green cotyledon (D) scores were assessed after a 4-day incubation under continuous illumination.
As a third screening approach, the Life Chemicals library was also screened for Arabidopsis germination inhibitors in solidified agar medium containing 0.5×MS salts, 0.5% sucrose and 25 μM test compound. Hits from the germination assay were subsequently tested in yeast two hybrid assays. Hit compounds were restocked from their original vendors and used in secondary screens and compound characterization. […]
For Arabidopsis germination and hypocotyl growth inhibition analysis, seeds after-ripened about 4 weeks were surface-sterilized with a solution containing 5% NaClO and 0.05% Tween-20 for 10 minutes, and rinsed with water four times. […] Germination was determined after a 4-day incubation, whereas hypocotyl growth was photographed after 6-day incubation.

ABA-responsive genes = assay: ATH1 microarray analysis; format: in vivo, Arabidopsis; details: wild-type seedlings; 25 μM
Protocol: FIG. 9A-FIG. 9D. LC66C6 induces numerous ABA-responsive genes. […] Ten-day old seedlings were treated with carrier solvent (DMSO) or either 25 μM ABA, pyrabactin or LC66C6 for 8 hours. Total RNA was then prepared labeled and hybridized to ATH1 microarrays. Data plotted are log 2 transformed average expression values for ˜13K probes that were detectable across all experiments. Data shown are averages determined from triplicate biological replicates. (C) and (D) show the expression of a reporter gene in different plant tissues after treatment with vehicle (DMSO), pyrabactin, LC66C6, or (+)-ABA.
Total RNA was isolated using RNAeasy Plant Mini Kit (Qiagen, USA) according to the manufacturer's instructions. cDNA synthesis, labeling and hybridization to the Arabidopsis ATH1 chips (Affymetrix, USA) were performed by the IIGB Core Instrumentation Facility of University of California at Riverside using Affymetrix protocols. Biological triplicate samples were hybridized for DMSO controls, ABA, pyrabactin and quinabactin treatments; compound were applied at 25 μM final concentration and RNA prepared from frozen tissue after 6 hours exposure to compounds or controls. Expression signals for probe sets were calculated and normalized by MASS Statistical Algorithm (Affymetrix, USA). Experimental filtering of array data was performed for the presence of signal in all experiments. […]

| SMILES | Growth of Chlamydomonas (Chlamydomonas) | Inhibition of germination of wild-type seeds (Arabidopsis seeds) | Genome-wide expression pattern compared with ABA (ABA-responsive genes) |
| --- | --- | --- | --- |
| CCCN1C(=O)CCc2cc(NS(=O)(=O)Cc3ccc(C)cc3)ccc21 [LC66C6] | no effect | nearly as effective, on a per mole basis, at inhibiting germination as (+)-ABA; also recorded: one of the most effective agonists, after (+)-ABA, at inhibiting germination of wild-type seeds | induces a similar set of genes to those induced by ABA |
| O=S(=O)(NCc1ccccn1)c1ccc(Br)c2ccccc12 [pyrabactin, reference compound] | bleached the Chlamydomonas |  | did not induce an expression pattern similar to that of ABA |
